Assays:
[1] = system: various human cell lines; assay: Growth inhibition tests, overall comparison (Table 1 panel); assay type: cell-based
Procedure: (§1) Growth inhibition tests on various human cell lines show the different activities of cisplatin, cis-oxoplatin and oxaliplatin. […] The following Table illustrates the results produced with cisplatin, oxoplatin, carboplatin and oxaliplatin (the values specified are IC50 values in μg/ml, i.e., the concentration where 50% of the cells survive, nd=not determined; res=resistant=non-sensitive or IC50 value cannot be determined at a concentration of up to 40 μg/ml; IC=inhibition concentration).

[2] = system: SW480 Colon; assay: Formazan test, cis-oxoplatin vs cis-oxoplatin Ca; assay type: cell-based, human; conditions: Table 4, formazan test
Procedure: (§2) The effect of cis-oxoplatin Ca and cis-oxoplatin was compared on 10 cell lines (Table 4).
(§3) (IC50 values specified in μg/ml; the test was performed as a formazan test).

[3] = system: CaCo-2 Colon; assay: Formazan test, cis-oxoplatin vs cis-oxoplatin Ca; assay type: cell-based, human; conditions: Table 4, formazan test
Procedure: as §2, §3

[4] = system: BxPC3 Pancreas; assay: Formazan test, cis-oxoplatin vs cis-oxoplatin Ca; assay type: cell-based, human; conditions: Table 4, formazan test
Procedure: as §2, §3

[5] = system: MDA-MB-435 Breast; assay: Formazan test, cis-oxoplatin vs cis-oxoplatin Ca; assay type: cell-based, human; conditions: Table 4, formazan test
Procedure: as §2, §3

[6] = system: Colo205 Colon; assay: Formazan test, cis-oxoplatin vs cis-oxoplatin Ca; assay type: cell-based, human; conditions: Table 4, formazan test
Procedure: as §2, §3

[7] = system: BT20 Breast; assay: Formazan test, cis-oxoplatin vs cis-oxoplatin Ca; assay type: cell-based, human; conditions: Table 4, formazan test
Procedure: as §2, §3

[8] = system: T47D Breast; assay: Formazan test, cis-oxoplatin vs cis-oxoplatin Ca; assay type: cell-based, human; conditions: Table 4, formazan test
Procedure: as §2, §3

[9] = system: HT29 Colon; assay: Formazan test, cis-oxoplatin vs cis-oxoplatin Ca; assay type: cell-based, human; conditions: Table 4, formazan test
Procedure: as §2, §3

[10] = system: Du145 Prostate; assay: Formazan test, cis-oxoplatin vs cis-oxoplatin Ca; assay type: cell-based, human; conditions: Table 4, formazan test
Procedure: as §2, §3

[11] = system: CRO2B Carcinoid; assay: Formazan test, cis-oxoplatin vs cis-oxoplatin Ca; assay type: cell-based, human; conditions: Table 4, formazan test
Procedure: as §2, §3

[12] = biological target: T1, trypsin (Bos taurus, UniProt P00760); assay: Protease inhibition; assay type: biochemical; conditions: at concentrations comparable to cisplatin
T1 construct: gene PRSS1
T1 sequence (P00760 24-246): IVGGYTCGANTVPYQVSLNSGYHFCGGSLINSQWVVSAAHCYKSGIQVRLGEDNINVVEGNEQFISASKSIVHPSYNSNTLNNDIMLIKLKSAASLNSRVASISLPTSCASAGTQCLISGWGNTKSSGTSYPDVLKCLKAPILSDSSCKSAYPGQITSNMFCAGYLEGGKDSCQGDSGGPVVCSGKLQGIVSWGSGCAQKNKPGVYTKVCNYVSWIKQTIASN
Excerpt: (§4) The pharmaceutical agents according to the invention, which can be produced using said kit, are capable of binding directly to a DNA. The cis-platinum compounds according to the invention have an octahedral configuration. Consequently, cis-oxoplatin in the meaning of the invention can form both intra- and inter-strand DNA complexes. Due to the specific structure of cis-oxoplatin, in contrast to cisplatin, the compounds of the invention form multiple bonds with DNA strands. Owing to the inter-strand-crosslinker complexes and intra-strand-crosslinker complexes, the compounds of the invention show advantageous specific cytostatic effects in anti-tumor therapy. The DNA adducts of the compounds according to the invention show higher charge of the platinum central atom and further have two additional ligands bound to this center. […] Potency and effectiveness of the inventive pharmaceutical agents comprising cis-oxo-platinum(IV) are largely independent of the form of application of the agents. The agents can be administered perorally, orally, rectally, subcutaneously, intramuscularly, intravenously and intraperitoneally.

[13] = system: α-chymotrypsin; assay: Protease inhibition; assay type: biochemical; conditions: at concentrations comparable to cisplatin
Excerpt: as §4

[14] = system: HT29, SW480, SK-OV4, PC3, SIM, CaCo-2, DU145 and CRO2B cells; assay: Growth inhibition, cis-oxoplatin vs sodium salt, summary over cell lines (Table 2); assay type: cell-based, human; conditions: CaCo-2, DU145, CRO2B
Procedure: as §1
The activities differ according to the cell line.

[15] = Platinum in the kidneys after injection; assay type: in vivo; conditions: 20 days after injection
Excerpt: A pharmaceutical agent comprising cis-diammoniumdichloro-trans-dihydroxoplatinum(IV) and/or its salts or derivatives incorporated in the base materials defined according to the invention enables effective treatment of tumors. […] In a particularly preferred fashion, salts are used, especially potassium, lithium, sodium, magnesium, barium, zinc, manganese, silver, copper, vanadium or calcium salts, wherein the anions can be e.g. chlorides, sulfates, phosphates, nitrates or carbonates or others. Other elements capable of forming salts are well-known to those skilled in the art, e.g. all elements from the main groups I to V of the Periodic Table of the Elements, as well as the elements from the subgroups I to VIII; all of the above-mentioned elements of the Periodic Table of the Elements can form cis-oxoplatinum salts.

[16] = system: tumor rats developing both internal and external tumors; assay: Therapeutic effect of tablets, ointments and infusion solutions in tumor rats; assay type: in vivo
Procedure: In a first test series, tablets, ointments and infusion solutions were tested on various tumor rats developing both internal and external tumors. The other drugs according to the invention were tested in additional, subsequent test series. […] In a preparation of 5 mg/ml solution, the infusion solution included 5 mg of cis-oxoplatin, 9 mg of benzyl alcohol, 2 mg of Polysorbate 80, 650 mg of 70% sorbitol solution, and 500 mg of water.
The tablets were administered in the form of a feed admixture. Infusion of the infusion solution was effected according to common laboratory practice via infusion tube.
Tumor effectiveness was established by weight determination and measuring the outer areas of degenerate tissue. As a comparison, the tumor effectiveness was also tested using an infusion solution comprising oxoplatin in sodium chloride solution and by means of direct oral administration of oxoplatin and by applying oxoplatin powder placed on the tumor area on the back of the laboratory animal by means of a bandage. Furthermore, tablets comprising cis-oxoplatin and sodium hydrogen carbonate or sodium alginate were tested.

[17] = system: panel of cell lines; assay: Cytotoxic activity of TRAXO, summary over 19 cell lines; assay type: cell-based, human; conditions: for sensitivity of cell lines: T-47D and BxPC3
Procedure: trans-Oxoplatin was tested on a panel of cell lines, using double steps and an initial concentration of 40 μg/ml. As the IC50 values were not reached in most cases, cell survival at the highest concentration is indicated.
Cell lines sensitive to cis-oxoplatin, such as T-47D and BxPC3, are non-sensitive to TRAXO. The salts of the trans-oxoplatin compounds may have a different therapeutic potential and different effectiveness against particular human cancer cells, cell lines and tumors.

[18] = system: 10 cell lines; assay: Formazan test, mean over 10 cell lines (Table 4); assay type: cell-based, human; conditions: mean ±SEM over the 10 cell lines of Table 4
Procedure: as §2, §3

For `N.N.[Cl-].[Cl-].[OH-].[OH-].[Pt+4]` [cis-Oxoplatin, cis-diammoniumdichloro-trans-dihydroxoplatinum(IV)], the “activity compared with oxaliplatin and carboplatin” value [1] was “activity similar to that of oxaliplatin, but higher activity than carboplatin”, the “IC50” value [2] was 8.2 µg/mL and the “IC50” value [3] was 1.52 µg/mL. The “IC50” value [4] was 26.0 µg/mL, the “IC50” value [5] was 16.5 µg/mL and the “IC50” value [6] was 29.0 µg/mL. The “IC50” value [7] was 3.75 µg/mL, the “IC50” value [8] was 2.5 µg/mL and the “IC50” value [9] was 13.5 µg/mL. The “IC50” value [10] was 19.0 µg/mL, the “IC50” value [11] was 3.0 µg/mL and the inhibition of proteases [12] was “does not inhibit”. For the same compound, the inhibition of proteases [13] was “does not inhibit”, the “IC50 values of these cells (mean)” value [14] was 10.5 ± 6.4 µg/mL and the “level of platinum compound in the kidneys” value [15] was “largely free of said compound”. The elimination [16] was “rapidly eliminated”, the “irritations in the surrounding tissue” value [16] was “irritations in the surrounding tissue” and the tumor growth ([16]; no base materials) was “reduction of tumor growth”. For the same compound, the “sensitivity of cell lines” value [17] was “sensitive”.
With `N.N.[Cl][Pt][Cl]` [Cis-platin, cisplatin, reference compound] the “level of platinum compound in the kidneys” value [15] was “approximately as high as one hour following injection”.
For `N.N.N.N.[Ca+2].[O-][Pt]([OH])([Cl])[Cl].[O-][Pt]([OH])([Cl])[Cl]` [Oxoplatin Ca, cis-oxoplatin calcium salt], the “IC50” value [2] was 2.5 µg/mL, the “IC50” value [3] was 0.87 µg/mL and the “IC50” value [4] was 30.0 µg/mL. The “IC50” value [5] was 12.0 µg/mL, the “IC50” value [6] was 13.5 µg/mL and the “IC50” value [7] was 3.5 µg/mL. For the same compound, the “IC50” value [8] was 3.6 µg/mL, the “IC50” value [9] was 8.0 µg/mL and the “IC50” value [10] was 14.5 µg/mL. The “IC50” value [11] was 2.20 µg/mL and the “IC50 (±SEM) mean value for all cell lines” value [18] was 9.1 ± 2.8 µg/mL.
In the case of `[NH2][Pt]([NH2])([OH])([OH])([Cl])[Cl]` [TRAXO, trans-Oxoplatin], the “activity against cell lines” value ([17]; SW 620, G-292, HOS, ACHN, HL-60, WI-38) is reported as “considerable activity” and the “sensitivity of cell lines” value [17] is reported as “non-sensitive”.
